The values that follow come from patent publication US10981932B2, “Macrocyclic indole derivatives” (Bayer Aktiengesellschaft, priority 2016, dated 2021).

The test system of experiment [1] is SUDHL10. Kind of experiment: Induction of caspase-3/7 activity (Caspase-Glo 3/7), SUDHL10. Type of experiment: cell-based. To be noted: Homo sapiens, SU-DHL10, 3 h, caspase-3/7 induction, SUDHL10 cells, 3 h treatment; median. The method, then: (§1) Induction of Caspase-317 Activity Upon Treatment of Cells with Selected Compounds
(§2) The BH3-domain of MCL-1 sequesters pro-apoptotic proteins, thereby inhibiting apoptosis. In contrast, MCL-1 inhibitors are expected to antagonize this effect leading to an increase in apoptosis, which can be determined by measuring the activity of caspase-3/7.
(§3) The activity of caspase-3/7 was determined in DLBCL (Diffuse large B-cell lymphoma) cell lines (SUDHL5 and SUDHL10) upon treatment with different compounds, using the Caspase-Glo® 3/7 reagent from Promega (G8092).
(§4) Rim wells were excluded. The cells were incubated for 3 h hours in a humidified incubator at 37° C.
(§5) For the evaluation of the results, the background measured with “medium-only” was subtracted from all other values. […] The Bella DRC Master Sheet was used to calculate EC50s, with fixed C0=1 and CI=plateaulmax induction for the reference compound.

Experiment [2] deals with SUDHL5. Kind of experiment: Induction of caspase-3/7 activity (Caspase-Glo 3/7), SUDHL5. Type of experiment: cell-based. To be noted: Homo sapiens, SU-DHL-5, 3 h, caspase-3/7 induction, SUDHL5 cells, 3 h treatment; median. The method, then: as §1, §2, §3, §4, §5
The next experiment deals with MCL-1 (Homo sapiens, UniProt Q07820). Kind of experiment: Protein-protein interaction assay MCL-1/Noxa BH3 peptide (MCL-1 assay), TR-FRET. The format is binding. To be noted: MBP-MCL-1 / Noxa BH3-derived peptide, median. The method, then:
Protein-Protein Interaction Assay: MCL-1/Noxa BH3 Peptide (MCL-1 Assay) […]
In the assay 11 different concentrations of each compound (0.1 nM, 0.33 nM, 1.1 nM, 3.8 nM, 13 nM, 44 nM, 0.15 μM, 0.51 μM, 1.7 μM, 5.9 μM and 20 μM) were typically measured as duplicates in the same microtiter plate. For that, 100-fold concentrated DMSO solutions were prepared by serial dilutions (1:3.4) of a 2 mM stock solution in a clear, 384-well microtiter plate (Greiner Bio-One, Frickenhausen, Germany). From there, 50 ni were transferred in a dark test plate (Greiner Bio-One, Frickenhausen, Germany). The assay was initiated by addition of 2 μl of a 2.5-fold concentrated MBP-MCL-1 solution (usually for a 1 nM end concentration in 5 μl reaction volume) in aqueous assay buffer [50 mM Tris/HCl pH 7, 100 mM sodium chloride (NaCl), 50 mM potassium fluoride (KF), 0.005% Tween-20, 2 mM DTT, 0.1% bovine gamma globulin (BGG)] to the compounds in the assay plate. This was followed by a 10-minute incubation step at 22° C. for pre-equilibration of the putative complex between MBP-MCL-1 and the compounds. After that.
The mixture was incubated in the dark for one hour at 22° C. and then overnight at 4° C. The formation of MCL-1/Noxa complexes was determined by measuring the resonance energy transfer of the anti-MBP- Eu-cryptate antibody to the streptavidin-XL665 present in the reaction. For that purpose, the fluorescence emission at 620 nm and 665 nm after excitation at 330-350 nm was measured in a TR-FRET measuring instrument, for instance a Rubystar or a Pherastar (both from BMG Lab Technologies, Offenburg, Germany) or a Viewlux (Perkin-Elmer). The ratio of the emission at 665 nm and at 622 nm was used as indicator of the amount of MCL-1/NOXA complexes present.
The resulting data (ratio) were normalized, taking 0% inhibition as the mean value of control measurements (usually 32 data points) where all reagents were included. In this case 50 nl DMSO were used instead of compounds. A 100% inhibition corresponded to the mean value of control measurements (usually 32 data points) where all reagents except MCL-1 were included. IC50 values were determined by regression analysis based on a 4 parameter equation (minimum, maximum, IC50, Hill; Y=Max+(Min−Max)/(1+(X/IC50)^Hill) using the Screener Software (Genedata).
On the technique in general: Time-resolved FRET reads energy transfer from a long-lived donor to a nearby acceptor.

The subject of experiment [3] is SUDHL10. Kind of experiment: Induction of cytotoxicity (CellTiter-Glo, 5 h), SUDHL10. To be noted: Homo sapiens, SU-DHL10, 5 h, read-out: Cytotox SUDHL10 [M] (median), SUDHL10 cells, cytotoxicity induction, CellTiter-Glo, 5 h incubation, median. In general terms: In ATP-based viability assays light output follows the ATP content of the culture.
Experiment [4] relates to SUDHL5. Kind of experiment: Anti-proliferative effect (CellTiter-Glo, 72 h), SUDHL5. To be noted: Homo sapiens, SU-DHL-5, 72 h, SUDHL5 cells, antiproliferation, 72 h incubation, median, read-out: Antiproli SUDHL5 [M] (median). Type of experiment: cell-based. The procedure: (§6) Assessment of the Anti-Proliferative Effect of Compounds in Different Cell Lines
(§7) The impact of compounds on the proliferation of different cell lines was assessed using the CellTiter-Glo® Luminescent Cell Viability reagent from Promega (G7573). Of note, SUDHL10 and SUDHL5 (DLBCL), NCI-H929 (Multiple Myeloma), A2780 (ovarian carcinoma) as well as MV-4-11(AML) cells are sensitive to MCL-1 inhibition.
(§8) In parallel, cells were plated in a reference (day 0) plate for time zero determination.
(§9) Rim wells were excluded. The cells were incubated for 72 h hours in a humidified incubator at 37° C. The day 0 plate was measured by adding 30 μl/well of CTG solution (CellTiter-Glo® Luminescent Cell Viability reagent, Promega G7573) to time zero wells in the reference plate followed by a 10 minutes incubation and luminescence reading at 0.1 ms, using the PHERAstar FS microplate reader (BMG Labtech).
(§10) After 72 h incubation, the treated plates were measured in the same way as the day 0 plate mentioned above.

Another experiment relates to A2780. Kind of experiment: Anti-proliferative effect (CellTiter-Glo, 72 h), A2780. The format is cell-based. Particulars: Homo sapiens, A2780, 72 h, A2780 cells, median, read-out: IC50 antiproliferation assay A2780 [M] (median). The method, then: as §6, §7, §8, §9, §10
For experiment [5], the system named is SUDHL5. Kind of experiment: Induction of cytotoxicity (CellTiter-Glo, 5 h), SUDHL5. To be noted: Homo sapiens, SU-DHL-5, 5 h, read-out: Cytotox SUDHL5 [M] (median), SUDHL5 cells, cytotoxicity induction, CellTiter-Glo, 5 h incubation, median.

Structures can show the parent of a compound that is named as a salt.

Usually EC50 stands for the concentration at which the effect is half-maximal.

Chain of MCL-1 (Q07820 whole entry): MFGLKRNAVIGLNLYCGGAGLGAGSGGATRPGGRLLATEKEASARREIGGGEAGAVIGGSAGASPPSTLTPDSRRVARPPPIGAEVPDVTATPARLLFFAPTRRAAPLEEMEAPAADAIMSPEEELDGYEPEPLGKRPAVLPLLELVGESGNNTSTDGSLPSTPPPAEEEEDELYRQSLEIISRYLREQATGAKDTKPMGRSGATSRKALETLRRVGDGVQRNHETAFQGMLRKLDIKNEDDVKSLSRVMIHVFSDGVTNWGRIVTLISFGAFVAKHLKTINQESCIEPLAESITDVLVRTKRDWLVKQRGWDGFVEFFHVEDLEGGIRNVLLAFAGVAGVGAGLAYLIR

As for `Cc1nn(CC(F)(F)F)c2c1-c1cccc3c(CCCOc4cccc5ccccc45)c(C(=O)O)n(c13)CCCCOC2` (racemic) [Example 109, (rac)-3-methyl-7-[3-(naphthalen-1-yloxy)propyl]-1-(2,2,2-trifluoroethyl)-1,10,11,12,13,15-hexahydropyrazolo[4′,3′:9,10][1,6]oxazacycloundecino[8,7,6-hi]indole-8-carboxylic acid], the EC50 in the experiment on SUDHL10 [1] and in the experiment with SUDHL5 [2] was greater than 33 µM throughout. Further, the IC50 against MCL-1 is 0.0111 µM; in the experiment with SUDHL10 [3] it was greater than 3.3e-05 M; with SUDHL5 [4], 1.56e-05 M; in the experiment on A2780, 1.9e-05 M; in the experiment with SUDHL5 [5] it was greater than 3.3e-05 M.

Consider `Cn1nc(CCN2CCOCC2)c2c1COCCCCn1c(C(=O)O)c(CCCOc3cccc4ccccc34)c3cccc-2c31` (racemic) [Example 150, (rac)-1-methyl-3-[2-(morpholin-4-yl)ethyl]-7-[3-(naphthalen-1-yloxy)propyl]-1,10,11,12,13,15-hexahydropyrazolo[4′,3′:9,10][1,6]oxazacycloundecino[8,7,6-hi]indole-8-carboxylic Acid], for which the EC50 in the experiment with SUDHL10 [1] was 28 µM; in the experiment with SUDHL5 [2] it was greater than 33 µM. For the same compound, the IC50 against MCL-1 was 0.00761 µM; in the experiment with SUDHL10 [3], greater than 3.3e-05 M; in the experiment with SUDHL5 [4], 2.11e-05 M; in the experiment with A2780, greater than 3.3e-05 M; in the experiment on SUDHL5 [5], 2.69e-05 M.

`COCc1nn(C)c2c1-c1cccc3c(CCCOc4cccc5ccccc45)c(C(=O)O)n(c13)CCCCCOC2` (racemic) [Example 177, (rac)-3-(methoxymethyl)-1-methyl-7-[3-(naphthalen-1-yloxy)propyl]-1,11,12,13,14,16-hexahydro-10H-pyrazolo[3′,4′:3,4][1,7]oxazacyclododecino[5,6,7-hi]indole-8-carboxylic Acid]: the figures for the EC50 in the experiment with SUDHL10 [1] and in the experiment with SUDHL5 [2] were greater than 33 µM and 23.3 µM, respectively. The IC50 on MCL-1 was 0.0107 µM; in the experiment with SUDHL10 [3], greater than 3.3e-05 M; with SUDHL5 [4], greater than 3.3e-05 M; with A2780, greater than 3.3e-05 M; in the experiment on SUDHL5 [5], 2.14e-05 M.

On to `Cn1nc(C(F)(F)F)c2c1COCCCCn1c(C(=O)O)c(CCCOc3cccc4ccccc34)c3cccc-2c31` (racemic) [Example 216, (rac)-1-methyl-7-[3-(naphthalen-1-yloxy)propyl]-3-(trifluoromethyl)-1,10,11,12,13,15-hexahydropyrazolo[4′,3′:9,10][1,6]oxazacycloundecino[8,7,6-hi]indole-8-carboxylic Acid], for which the EC50 in the experiment with SUDHL10 [1] amounted to 28.7 µM; with SUDHL5 [2], 10 µM. In addition, the IC50 against MCL-1 was found to be 0.0058 µM; in the experiment with SUDHL10 [3], 3.11e-05 M; in the experiment on SUDHL5 [4] it was 1.27e-05 M; with A2780, 2.02e-05 M; in the experiment on SUDHL5 [5], 1.04e-05 M.

As for `Cc1c2c(nn1CCN(C)C)COCCCCn1c(C(=O)O)c(CCCOc3cccc4ccccc34)c3cccc-2c31` (racemic) [Example 243, (rac)-2-[2-(dimethylamino)ethyl]-3-methy-7-[3-(naphthalen-1-yloxy)propyl]-2,10,11,12,13,15-hexahydropyrazolo[4′,3′:9,10][1,6]oxazacycloundecino[8,7,6-hi]indole-8-carboxylic Acid Trifluoroacetic Acid Salt], the values for the EC50 in the experiment with SUDHL10 [1] and with SUDHL5 [2] were 16.5 µM and 7.09 µM, respectively. In addition, the IC50 against MCL-1 was determined as 0.00778 µM; in the experiment on SUDHL10 [3] it was 1.46e-05 M; in the experiment on SUDHL5 [4], 1.11e-05 M; in the experiment on A2780, 1.43e-05 M; with SUDHL5 [5], 6.44e-06 M.

With `CCc1nn(C)c2c1-c1c(C)ccc3c(C(C)CCOc4cccc5ccccc45)c(C(=O)O)n(c13)CCCCOC2` (racemic) [Example 271, 3-ethyl-1,4-dimethyl-7-[4-(naphthalen-1-yloxy)butan-2-yl]-1,10,11,12,13,15-hexahydropyrazolo[4′,3′:9,10][1,6]oxazacycloundecino[8,7,6-hi]indole-8-carboxylic Acid], the EC50 in the experiment with SUDHL10 [1] and with SUDHL5 [2] was greater than 33 µM each time. Also, the IC50 against MCL-1 is 0.0306 µM; in the experiment with SUDHL10 [3] it was greater than 3.3e-05 M; in the experiment with SUDHL5 [4], 1.27e-05 M; with A2780 it was 1.83e-05 M; with SUDHL5 [5], 3.28e-05 M.
